Test results: publication PMC4303209, “A novel phosphatidylinositol 3-kinase (PI3K) inhibitor directs a potent FOXO-dependent, p53-independent cell cycle arrest phenotype characterized by the differential induction of a subset of FOXO-regulated genes” (Breast Cancer Research : BCR, 2014)

Tested on: MCF-7 breast cancer cells
Experiment: Microarray gene expression analysis (Agilent whole human genome 4 x 44K; compound vs DMSO, LIMMA log2 fold change)
Type: cell-based

SMILES: Oc1cccc(-c2nc(N3CCOCC3)c3oc4ncccc4c3n2)c1 [PI-103]
- EYA1 log2FC (gene EYA1 (2138), apoptosis genes): 0.027
- log2FC EYA1 (gene EYA1 (Gene 2138), cell cycle genes): 0.027
- FABP1 log2FC (gene FABP1 (2168), apoptosis genes): -0.014
- FAIM2 log2FC (gene FAIM2 (23017), apoptosis genes): 0.077
- FAM3B log2FC (gene FAM3B (54097), apoptosis genes): -0.110
- FAM32A log2FC (gene FAM32A (26017), apoptosis genes): -0.300
- log2FC FAM32A (gene FAM32A (Gene 26017), cell cycle genes): -0.30
- log2FC (gene FAM58A (Gene 92002), cell cycle genes): 0.17
- FAS log2FC (gene FAS (355), apoptosis genes): -0.278
- log2FC (gene FBXL15 (Gene 79176), cell cycle genes): 0.25
- log2FC FGFR1OP (gene FGFR1OP (Gene 11116), cell cycle genes): -0.20
- FIS1 log2FC (gene FIS1 (51024), apoptosis genes): 0.161
- FKSG2 log2FC (gene FKSG2 (59347), apoptosis genes): -0.076
- log2FC (gene FMN2 (Gene 56776), cell cycle genes): 0.00262
- FOXB1 log2FC (gene FOXB1 (27023), apoptosis genes): -0.433
- log2FC (gene FSD1 (Gene 79187), cell cycle genes): -0.09
- GADD45G log2FC (gene GADD45G (10912), apoptosis genes): -0.195
- GAPDH log2FC (gene GAPDH (2597), apoptosis genes): 0.013
- log2FC (gene GAS2L1 (Gene 10634), cell cycle genes): -0.26
- log2FC GAS2L2 (gene GAS2L2 (Gene 246176), cell cycle genes): -0.00222
- GAS6 log2FC (gene GAS6 (2621), apoptosis genes): -0.103
- GATA6 log2FC (gene GATA6 (2627), apoptosis genes): 0.052
- log2FC GATA6 (gene GATA6 (Gene 2627), cell cycle genes): 0.05
- GCG log2FC (gene GCG (2641), apoptosis genes): 0.035
- GCLM log2FC (gene GCLM (2730), apoptosis genes): -0.246
- GCM2 log2FC (gene GCM2 (9247), apoptosis genes): -0.063
- log2FC (gene GEM (Gene 2669), cell cycle genes): 0.84
- GFRAL log2FC (gene GFRAL (389400), apoptosis genes): -0.028
- GHRL log2FC (gene GHRL (51738), apoptosis genes): -0.060
- GIMAP5 log2FC (gene GIMAP5 (55340), apoptosis genes): 0.028
- GJB6 log2FC (gene GJB6 (10804), apoptosis genes): 0.090
- log2FC (gene GOLGA2 (Gene 2801), cell cycle genes): 0.24
- log2FC (gene GORASP1 (Gene 64689), cell cycle genes): 0.05
- log2FC (gene GORASP2 (Gene 26003), cell cycle genes): -0.48
- GPI log2FC (gene GPI (2821), apoptosis genes): 0.047
- GPR65 log2FC (gene GPR65 (8477), apoptosis genes): -0.016
- GRK1 log2FC (gene GRK1 (6011), apoptosis genes): -0.053
- log2FC (gene GTPBP8 (Gene 29083), cell cycle genes): 0.10
- log2FC (gene GTSE1 (Gene 51512), cell cycle genes): -0.33
- log2FC H1FOO (gene H1FOO (Gene 132243), cell cycle genes): 0.05
- HCLS1 log2FC (gene HCLS1 (3059), apoptosis genes): 0.112
- log2FC (gene HELLS (Gene 3070), cell cycle genes): 0.14
- HIPK3 log2FC (gene HIPK3 (10114), apoptosis genes): -0.044
- log2FC HORMAD2 (gene HORMAD2 (Gene 150280), cell cycle genes): 0.09
- log2FC HPGD (gene HPGD (Gene 3248), cell cycle genes): 0.065
- HPN log2FC (gene HPN (3249), apoptosis genes): -0.076
- HTRA2 log2FC (gene HTRA2 (27429), apoptosis genes): 0.078
- log2FC HTRA2 (gene HTRA2 (Gene 27429), cell cycle genes): 0.08
- IFI6 log2FC (gene IFI6 (2537), apoptosis genes): 0.0043
- IFNA2 log2FC (gene IFNA2 (3440), apoptosis genes): 0.014
- IFNB1 log2FC (gene IFNB1 (3456), apoptosis genes): 0.022
- IL1A log2FC (gene IL1A (3552), apoptosis genes): -0.067
- IL2RA log2FC (gene IL2RA (3559), apoptosis genes): -0.038
- IL2RB log2FC (gene IL2RB (3560), apoptosis genes): -0.066
- IL12A log2FC (gene IL12A (3592), apoptosis genes): -0.262
- log2FC IL12A (gene IL12A (Gene 3592), cell cycle genes): -0.26
- IL12B log2FC (gene IL12B (3593), apoptosis genes): -0.023
- IL17A log2FC (gene IL17A (3605), apoptosis genes): 0.037
- IL19 log2FC (gene IL19 (29949), apoptosis genes): -0.032
- ILK log2FC (gene ILK (3611), apoptosis genes): -0.047
- log2FC ILKAP (gene ILKAP (Gene 80895), cell cycle genes): -0.08
- INSL6 log2FC (gene INSL6 (11172), apoptosis genes): 0.047
- ISL1 log2FC (gene ISL1 (3670), apoptosis genes): -0.142
- ITGA6 log2FC (gene ITGA6 (3655), apoptosis genes): -0.139
- ITGB2 log2FC (gene ITGB2 (3689), apoptosis genes): 0.148
- ITM2C log2FC (gene ITM2C (81618), apoptosis genes): 0.019
- log2FC KATNB1 (gene KATNB1 (Gene 10300), cell cycle genes): 0.26
- log2FC KCNA5 (gene KCNA5 (Gene 3741), cell cycle genes): -0.0139
- KDR log2FC (gene KDR (3791), apoptosis genes): -0.033
- log2FC (gene KIAA0101 (Gene 9768), cell cycle genes): 0.28
- KIAA1324 log2FC (gene KIAA1324 (57535), apoptosis genes): -0.031
- log2FC KIF2B (gene KIF2B (Gene 84643), cell cycle genes): -0.17
- log2FC (gene KIF13A (Gene 63971), cell cycle genes): 0.06
- log2FC (gene KIF23 (Gene 9493), cell cycle genes): 0.55
- log2FC KIF25 (gene KIF25 (Gene 3834), cell cycle genes): 0.00228
- KLF4 log2FC (gene KLF4 (9314), apoptosis genes): -0.178
- KRT20 log2FC (gene KRT20 (54474), apoptosis genes): -0.013
- LALBA log2FC (gene LALBA (3906), apoptosis genes): -0.012
